Key:
[1] = target: Dual specificity mitogen-activated protein kinase kinase; MEK1/2 (Homo sapiens, UniProt P36507+Q02750)
Description: Inhibition of MEK-mediated ERK T202/Y204 phosphorylation in human MDA-MB-231T cells after 1 hr by immunoblotting

[2] = target: Dual specificity mitogen-activated protein kinase kinase 1 (Homo sapiens, UniProt Q02750)
Description: Inhibition of MEK1-mediated ERK2 T202/Y204 phosphorylation using biotinylated MBP as substrate preincubated for 30 mins measured after 100 mins by cRAF-MEK-ERK enzyme coupled assay

Brain [3] = experiment: Drug metabolism in brain of nude NCr mouse xenografted with human MDA-MB-231T cells assessed as 3,4-difluoro-2-(2-fluoro-4-iodophenylamino)benzoic acid level at 30 mg/kg, po measured after 24 hrs by LC-MS analysis; type: ADME, organism-based; set-up: dose 30 mg/kg, route oral; details: in vivo
Brain [4] = experiment: Drug metabolism in brain of nude NCr mouse xenografted with human MDA-MB-231T cells assessed as 3,4-difluoro-2-(2-fluoro-4-iodophenylamino)benzoic acid level at 30 mg/kg, po measured after 2 hrs by LC-MS analysis; type: ADME, organism-based; set-up: dose 30 mg/kg, route oral; details: in vivo
Plasma [5] = experiment: Drug metabolism in plasma of nude NCr mouse xenografted with human MDA-MB-231T cells assessed as 3,4-difluoro-2-(2-fluoro-4-iodophenylamino)benzoic acid level at 30 mg/kg, po measured after 24 hrs by LC-MS analysis; type: ADME, organism-based; set-up: dose 30 mg/kg, route oral; details: in vivo
[6] = Drug metabolism in tumor of nude NCr mouse xenografted with human MDA-MB-231T cells assessed as 3,4-difluoro-2-(2-fluoro-4-iodophenylamino)benzoic acid level at 30 mg/kg, po measured after 24 hrs by LC-MS analysis; type: ADME, organism-based, Neoplasm; set-up: dose 30 mg/kg, route oral; details: in vivo
Plasma [7] = experiment: Drug metabolism in plasma of nude NCr mouse xenografted with human MDA-MB-231T cells assessed as 3,4-difluoro-2-(2-fluoro-4-iodophenylamino)benzoic acid level at 30 mg/kg, po measured after 2 hrs by LC-MS analysis; type: ADME, organism-based; set-up: dose 30 mg/kg, route oral; details: in vivo
[8] = Drug metabolism in tumor of nude NCr mouse xenografted with human MDA-MB-231T cells assessed as 3,4-difluoro-2-(2-fluoro-4-iodophenylamino)benzoic acid level at 30 mg/kg, po measured after 2 hrs by LC-MS analysis; type: ADME, organism-based, Neoplasm; set-up: dose 30 mg/kg, route oral; details: in vivo
[9] = Clearance in Sprague-Dawley rat at 5 mg/kg, po; type: ADME, organism-based; set-up: dose 5 mg/kg, route oral; details: in vivo
[10] = Apparent permeability across MDCK cells; type: ADME, cell-based, Canis lupus familiaris; details: dog
[11] = Half life in Sprague-Dawley rat at 5 mg/kg, po; type: ADME, organism-based; set-up: dose 5 mg/kg, route oral; details: in vivo
[12] = Oral bioavailability in Sprague-Dawley rat at 5 mg/kg; type: ADME, organism-based; details: in vivo
Rattus norvegicus = experiment: Dose normalised AUC (0 to t) in Sprague-Dawley rat at 5 mg/kg, po; type: ADME, organism-based; set-up: dose 5 mg/kg, route oral; details: in vivo
[13] = Drug metabolism in human liver microsomes at 15 uM after 30 mins; type: ADME, Microsome; details: read-out: Drug metabolism
[14] = Drug metabolism in rat liver microsomes at 15 uM after 30 mins; type: ADME, Microsome; details: read-out: Drug metabolism
[15] = Drug uptake in tumor of nude NCr mouse xenografted with human MDA-MB-231T cells at 30 mg/kg, po measured after 2 hrs by LC-MS analysis; type: ADME, organism-based, Neoplasm; set-up: dose 30 mg/kg, route oral; details: read-out: Drug uptake
Mus musculus [16] = experiment: Inhibition of MEK-mediated ERK T202/Y204 phosphorylation in nude NCr mouse brain xenografted with human MDA-MB-231T cells at 30 mg/kg, po after 2 hrs by immunoblotting; type: functional
[17] = Drug uptake in tumor of nude NCr mouse xenografted with human MDA-MB-231T cells at 30 mg/kg, po measured after 24 hrs by LC-MS analysis; type: ADME, organism-based, Neoplasm; set-up: dose 30 mg/kg, route oral; details: read-out: Drug uptake
[18] = Drug uptake in brain of nude NCr mouse xenografted with human MDA-MB-231T cells at 30 mg/kg, po measured after 2 hrs by LC-MS analysis; type: ADME, organism-based; set-up: dose 30 mg/kg, route oral; details: read-out: Drug uptake
Mus musculus [19] = experiment: Inhibition of MEK-mediated ERK T202/Y204 phosphorylation in human MDA-MB-231T cells xenografted in nude NCr mouse tumor at 30 mg/kg, po after 2 hrs by immunoblotting; type: functional
[20] = Drug uptake in brain of nude NCr mouse xenografted with human MDA-MB-231T cells at 30 mg/kg, po measured after 24 hrs by LC-MS analysis; type: ADME, organism-based; set-up: dose 30 mg/kg, route oral; details: read-out: Drug uptake
[21] = Plasma concentration in nude NCr mouse xenografted with human MDA-MB-231T cells at 30 mg/kg, po measured after 2 hrs by LC-MS analysis; type: ADME, organism-based; set-up: dose 30 mg/kg, route oral
Mus musculus [22] = experiment: Inhibition of MEK-mediated ERK T202/Y204 phosphorylation in human MDA-MB-231T cells xenografted in nude NCr mouse tumor at 30 mg/kg, po after 24 hrs by immunoblotting; type: functional
Mus musculus [23] = experiment: Inhibition of MEK-mediated ERK T202/Y204 phosphorylation in po dosed nude NCr mouse brain xenografted with human MDA-MB-231T cells from 2 to 24 hrs by immunoblotting; type: functional
[24] = Plasma concentration in nude NCr mouse xenografted with human MDA-MB-231T cells at 30 mg/kg, po measured after 24 hrs by LC-MS analysis; type: ADME, organism-based; set-up: dose 30 mg/kg, route oral
Mus musculus [25] = experiment: Inhibition of MEK-mediated ERK T202/Y204 phosphorylation in nude NCr mouse brain xenografted with human MDA-MB-231T cells at 30 mg/kg, po after 24 hrs by immunoblotting; type: functional

Sequence of Dual specificity mitogen-activated protein kinase kinase 1 (Q02750 whole entry): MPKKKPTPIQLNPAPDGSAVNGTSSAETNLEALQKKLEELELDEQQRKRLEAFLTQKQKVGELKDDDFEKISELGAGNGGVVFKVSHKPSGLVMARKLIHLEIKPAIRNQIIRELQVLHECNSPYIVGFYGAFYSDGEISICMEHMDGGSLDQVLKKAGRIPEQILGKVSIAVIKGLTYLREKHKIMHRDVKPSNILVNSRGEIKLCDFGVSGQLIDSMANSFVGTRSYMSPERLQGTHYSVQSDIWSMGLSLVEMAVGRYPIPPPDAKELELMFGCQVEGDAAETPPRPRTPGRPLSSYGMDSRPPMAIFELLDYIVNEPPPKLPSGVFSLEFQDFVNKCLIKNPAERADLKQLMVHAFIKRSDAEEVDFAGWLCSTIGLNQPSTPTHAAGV

| Structure (SMILES) | IC50 [1] | IC50 [2] | CL/F [9] | Papp [10] | half-life [11] | bioavailability [12] | AUCt/dose (Rattus norvegicus) | metabolised at 0.5 h, 15 µM [14] | also measured |
| --- | --- | --- | --- | --- | --- | --- | --- | --- | --- |
| O=C(c1ccc(F)c(F)c1Nc1ccc(I)cc1F)N1CC(O)C1 |  |  | 139 mL/min/kg | 39.9 ×10⁻⁶ cm/s | 1.5 h | 19% | 0.05 µM·h/mg/kg | 80.1% | metabolised at 0.5 h, 15 µM [13]: 30.8% |
| O=C(c1ccc(F)c(F)c1Nc1ccc(I)cc1F)N1CC(O)(CO)C1 | 29 nM | 27 nM |  |  |  |  |  |  |  |
| NC(=O)C1(O)CN(C(=O)c2ccc(F)c(F)c2Nc2ccc(I)cc2F)C1 | 81 nM | 220 nM |  |  |  |  |  |  |  |

The next lines start with results.

| IC50 [1] | IC50 [2] | CL/F [9] | Papp [10] | half-life [11] | bioavailability [12] | AUCt/dose (Rattus norvegicus) | metabolised at 0.5 h, 15 µM [14] | Structure (SMILES) | also measured |
| --- | --- | --- | --- | --- | --- | --- | --- | --- | --- |
| 128 nM | 801 nM |  |  |  |  |  |  | O=C(NCCC(O)CO)c1ccc(F)c(F)c1Nc1ccc(I)cc1F (configuration not stated) |  |
| 102 nM | 19.5 nM |  |  |  |  |  |  | O=C(O)c1ccc(F)c(F)c1Nc1ccc(I)cc1F | Drug metabolism (Brain [3]): < 0.005 µM; Drug metabolism (Brain [4]): < 0.005 µM; Drug metabolism (Plasma [5]): 0.21 µM; Drug metabolism [6]: < 0.005 µM; Drug metabolism (Plasma [7]): 0.01 µM; Drug metabolism [8]: < 0.005 µM |
| 57 nM | 6.6 nM | 12.6 mL/min/kg | 4.3 ×10⁻⁶ cm/s | 9.1 h | 78% | 1.57 µM·h/mg/kg | 16.2% | NCC1(O)CN(C(=O)c2ccc(F)c(F)c2Nc2ccc(I)cc2F)C1 | concentration at 2 h [15]: 7360 nM; inhibition in vivo at 30 mg/kg (Mus musculus [16]): 23%; concentration at 24 h [17]: 26800 nM; concentration at 2 h [18]: 730 nM; inhibition in vivo at 30 mg/kg (Mus musculus [19]): 27%; concentration at 24 h [20]: 1240 nM; concentration at 2 h [21]: 2400 nM; inhibition in vivo at 30 mg/kg (Mus musculus [22]): 44%; ED50 (Mus musculus [23]): > 30 mg/kg; concentration at 24 h [24]: 30 nM; inhibition in vivo at 30 mg/kg (Mus musculus [25]): 17% |
|  |  | 35 mL/min/kg | 20.7 ×10⁻⁶ cm/s | 5.4 h | 101% | 0.85 µM·h/mg/kg | 31.5% | CCNCC1(O)CN(C(=O)c2ccc(F)c(F)c2Nc2ccc(I)cc2F)C1 | metabolised at 0.5 h, 15 µM [13]: 46.3% |
